Laboratory results published in patent publication US11052245B2, “Device and method for localized delivery and extraction of material” (Helsingin Yliopisto, priority 2015, dated 2021).

Columns and labels:
[1] = In-vitro delivery of methylene blue into human nails by MHD, photograph; assay type: in vitro ADME; conditions: MB 0.01% in PBS 1%, MHD for 10 minutes, graphite electrodes ø=6 mm, 3 mm gap, 400 mA, control immersed 10 minutes without MHD
Protocol: Control: Fingernail was immersed in a solution of MB (0.01%) in PBS (1%) for 10 minutes.
Treatment; Fingernail was immersed in the MB solution and exposed to MHD during 10 minutes. The MHD method applied graphite cylindrical electrodes (ø=6 mm), 3 mm electrode gap, and 400 mA.
The darkest regions correspond to the largest concentration of MB.

[2] = Delivery of phosphotungstic acid into bovine articular cartilage by MHD, imaged with X-ray micro-tomography; assay type: in vitro ADME; conditions: PTA 1% in PBS; MHD for 40 s, graphite electrodes ø=6 mm, 3 mm gap, 400 mA; control immersed 40 s without MHD; XMT of 150 μm slices
Source text: Control: bovine articular cartilage was immersed in 1% PTA (˜2.8 kDa) in phosphate buffered saline (PBS) for 40 s.
Treatment: bovine articular cartilage was immersed in PTA 1% in PBS and exposed to MHD for 40 s. The MHD method applied graphite cylindrical electrodes (ø=6 mm), 3 mm electrode gap, and 400 mA.

| Diffusion of MB into nail, treated sample vs control [1] | SMILES | Diffusion of PTA into cartilage, treated sample vs control [2] |
| --- | --- | --- |
| stronger than in the control | CN(C)c1ccc2nc3ccc(=[N+](C)C)cc-3sc2c1 [MB, methylene blue] | – |
| – | O=P(O)(O)O.[O]=[W](=[O])=[O].[O]=[W](=[O])=[O].[O]=[W](=[O])=[O].[O]=[W](=[O])=[O].[O]=[W](=[O])=[O].[O]=[W](=[O])=[O].[O]=[W](=[O])=[O].[O]=[W](=[O])=[O].[O]=[W](=[O])=[O].[O]=[W](=[O])=[O].[O]=[W](=[O])=[O].[O]=[W](=[O])=[O] [PTA, phosphotungstic acid] | enhanced diffusion of PTA as compared to the control |
